Values quoted from earlier work, collected in patent publication US20040005368A1, “Novel approach to weight loss comprising a modified protein composition that regulates blood sugar in conjunction with compositions that increase oxygen uptake and suppress appetite” (priority 2002, published 2004).

Details: group of animals

| SMILES | loss in body weight | loss in body fat |
| --- | --- | --- |
| Cn1c(=O)c2c(ncn2C)n(C)c1=O [caffeine] | no significant loss in body weight |  |
| CN[C@@H](C)[C@H](O)c1ccccc1 [ephedrine] | 14% | 42% |
